# Measured values reported in ChEMBL document CHEMBL1141275, “Sesquiterpenoids from Bombax malabaricum” (J Nat Prod, 2007).
# Active and inactive are the calls of the source. The rule behind the calls is not given here.
# How the values were obtained:
# Type in all cases: functional, cell-based
# HGC-27 = experiment: Cytotoxicity against human HGC27 cells by MTT assay
# A549 = experiment: Cytotoxicity against human A549 cells by MTT assay
# HeLa = experiment: Cytotoxicity against human HeLa cells by MTT assay
SMILES,IC50 (HGC-27) [µM],other results
COC1=C(C)C(=O)c2c(C(C)C)cc(O)c(C(=O)O)c2C1=O,> 10,–
COc1c(O)c(C)cc2c(C(C)C)cc(O)c(C=O)c12,> 10,–
COc1c(C)cc2c(C(C)C)cc(O)c3c2c1OC3=O,> 10,–
COC1=C2OC(=O)c3c(O)cc(C(C)C)c(c32)C(=O)C1(C)O (stereo not drawn) [BOMBAMALONE A],> 10,–
CC1=C2OC(C)(C)c3cc4c(c(c32)C(=O)C1=O)C(C)(O)C=CO4 (stereo not drawn) [BOMBAMALONE B],> 10,Activity (A549): inactive; Activity (HeLa): inactive
COc1c(O)c(C)cc2c1C(=O)C(=O)C=C2C(C)C [BOMBAMALONE C],> 10,–
CC1=C2OC(C)(C)c3cc(O[C@@H]4O[C@H](CO)[C@@H](O)[C@H](O)[C@H]4O)c(C(=O)O)c(c32)C(=O)C1=O [BOMBAMALOSIDE],> 10,–
Cc1cc2c(cc1O)[C@@](C)(O)C(=O)C=C2C(C)C [LACINILENE C],> 10,–
CC(=O)O[C@H]1C(=O)[C@@]2(C)[C@H]([C@H](OC(=O)c3ccccc3)[C@]3(O)C[C@H](OC(=O)[C@H](O)[C@@H](NC(=O)c4ccccc4)c4ccccc4)C(C)=C1C3(C)C)[C@]1(OC(C)=O)CO[C@@H]1C[C@@H]2O [PACLITAXEL],0.778,IC50 (A549): 0.0126 µM; IC50 (HeLa): 0.0056 µM
